Experimental data from patent US10471083B2, “Formulations of aminoglycoside and fosfomycin in combination for treatment of ventilator associated pneumonia (VAP) and ventilator associated tracheal (VAT) bronchitis” (SAVARA INC., priority 2011, dated 2019).
Values after ≈ are worked out from the molar mass of the structure shown.

What was measured:
pseudomonas isolates = details: most pseudomonas isolates; cited from earlier work
[1] = system: Stenotrophomonas maltophilia; details: cited from earlier work
Pseudomonas aeruginosa = details: cited from earlier work
[2] = Aerosol particle size distribution (MMAD) in the dog study; format: physicochemical; details: aerosol of the combined formulation, analytical methods
Pseudomonas = details: cited from earlier work
[3] = set-up: species or system beagle dogs; details: dog, in vivo
Description: Toxicokinetic parameters were estimated using WinNonlin pharmacokinetic software version 5.2.1 (Pharsight Corp.). A non-compartmental approach consistent with the extravascular route of administration was used for parameter estimation. All parameters were generated from individual amikacin and fosfomycin concentrations in plasma from Days 1 and 7.

MRSA = details: data from the 1980's; cited from earlier work

Which MIC90 (pseudomonas isolates) does the source give for `NC[C@H]1O[C@H](O[C@H]2[C@H](O)[C@@H](O[C@H]3O[C@H](CO)[C@@H](O)[C@H](N)[C@H]3O)[C@H](N)C[C@@H]2N)[C@H](N)C[C@@H]1O` [tobramycin] here?
The MIC90 was 64 µg/mL (≈ 137 µM).

For `NCC[C@H](O)C(=O)N[C@@H]1C[C@H](N)[C@@H](O[C@H]2O[C@H](CN)[C@@H](O)[C@H](O)[C@H]2O)[C@H](O)[C@H]1O[C@H]1O[C@H](CO)[C@@H](O)[C@H](N)[C@H]1O` [amikacin], which “MIC90” value [1] is on record?
The value was greater than 64 µg/mL.

And the “factor of increase of in vitro activity of amikacin by fosfomycin” value (Pseudomonas aeruginosa)?
The value was 64.

What about the “particle size distribution (MMAD)” value [2] of the same molecule?
The value was 2.80 μm.

What about the “MIC90” value (Pseudomonas) of the same molecule?
The value was 32 µg/mL (≈ 54.6 µM).

What about the “accumulation following repeat dosing” value [3] of the same molecule?
The value was “no clear indication of accumulation”.

Which “accumulation following repeat dosing” value [3] does the source give for `C[C@@H]1O[C@@H]1P(=O)(O)O` [fosfomycin] here?
Its value is “no clear indication of accumulation”.

What about the MIC90 (MRSA) of the same molecule?
Its MIC90 is 32 µg/mL (≈ 232 µM).
